The values that follow are results of earlier work, collected in patent US20090028935A1, “CARVEDILOL FORMS, COMPOSITIONS, AND METHODS OF PREPARATION THEREOF” (priority 2006, published 2009).

For this series the following is noted: background statement.

“Also recorded” adds a separate entry of the source. Read-outs that look alike come from different tables or passages of the source.

Turning to `COc1ccccc1OCCNCC(O)COc1cccc2[nH]c3ccccc3c12` (racemic) [Carvedilol, (±)-1-(carbazol-4-yloxy)-3-[[2-(o-methoxyphenoxy)ethyl]amino]-2-propanol], the aqueous solubility entry is “low solubility in aqueous media, especially in media of increasingly basic pH; also recorded: limited aqueous solubility, especially in basic aqueous media”. For the same compound, the aqueous solubility entry (listed as carvedilol) is recorded as “pH dependent solubility with significantly lower solubility in the lower gastrointestinal tract”.
